Measured values taken from ChEMBL document CHEMBL1123693, “Amnesia-reversal activity of a series of cyclic imides” (1987).

Assays:
Format in all cases: functional
Mus musculus [1] = assay: Reversal of electroconvulsive shock induced amnesia in mice following 1 mg/Kg p.o.
Mus musculus [2] = assay: Ability to reverse electroconvulsive shock (ECS) induced amnesia in mice, at a dose of 10 mg/Kg administered perorally
Mus musculus [3] = assay: Reversal of electroconvulsive shock induced amnesia in mice following 100 mg/Kg p.o.
Mus musculus [4] = assay: Ability to reverse electroconvulsive shock (ECS) induced amnesia in mice, at a dose of 5 mg/Kg administered perorally
Mus musculus [5] = assay: Ability to reverse electroconvulsive shock (ECS) induced amnesia in mice, at a dose of 2.5 mg/Kg administered perorally
Mus musculus [6] = assay: Reversal of electroconvulsive shock induced amnesia in mice following 20 mg/Kg p.o.
Mus musculus [7] = assay: Ability to reverse electroconvulsive shock (ECS) induced amnesia in mice, at a dose of 1.25 mg/Kg administered perorally
Mus musculus [8] = assay: Ability to reverse electroconvulsive shock (ECS) induced amnesia in mice, at a dose of 80 mg/Kg administered perorally
Mus musculus [9] = assay: Ability to reverse electroconvulsive shock (ECS) induced amnesia in mice, at a dose of 100 mg/Kg administered perorally(Exp-1)
Mus musculus [10] = assay: Ability to reverse electroconvulsive shock (ECS) induced amnesia in mice, at a dose of 100 mg/Kg administered perorally(Exp-2)
Mus musculus [11] = assay: Ability to reverse electroconvulsive shock (ECS) induced amnesia in mice, at a dose of 1.0 mg/Kg administered perorally(Exp-1)
Mus musculus [12] = assay: Ability to reverse electroconvulsive shock (ECS) induced amnesia in mice, at a dose of 1.0 mg/Kg administered perorally(Exp-2)
Mus musculus [13] = assay: Ability to reverse electroconvulsive shock (ECS) induced amnesia in mice, at a dose of 10 mg/Kg administered perorally(Exp-1)
Mus musculus [14] = assay: Ability to reverse electroconvulsive shock (ECS) induced amnesia in mice, at a dose of 10 mg/Kg administered perorally(Exp-2)
Mus musculus [15] = assay: Ability to reverse electroconvulsive shock (ECS) induced amnesia in mice, at a dose of 0.6 mg/Kg administered perorally
Mus musculus [16] = assay: Ability to reverse electroconvulsive shock (ECS) induced amnesia in mice, at a dose of 10 mg/kg administered perorally; details: route oral
Mus musculus [17] = assay: Ability to reverse electroconvulsive shock (ECS) induced amnesia in mice, at a dose of 1 mg/Kg administered perorally
Mus musculus [18] = assay: Ability to reverse electroconvulsive shock (ECS) induced amnesia in mice, at a dose of 320 mg/Kg administered perorally
Mus musculus [19] = assay: Ability to reverse electroconvulsive shock (ECS) induced amnesia in mice, at a dose of 40 mg/Kg administered perorally
Mus musculus [20] = assay: Ability to reverse electroconvulsive shock (ECS) induced amnesia in mice, at a dose of 160 mg/Kg administered perorally
Mus musculus [21] = assay: Ability to reverse electroconvulsive shock (ECS) induced amnesia in mice, at a dose of 0.31 mg/Kg administered perorally
Mus musculus [22] = assay: Ability to reverse electroconvulsive shock (ECS) induced amnesia in mice, at a dose of 0.63 mg/Kg administered perorally

SMILES | Reversal (Mus musculus [1]) [%] | Reversal (Mus musculus [2]) [%] | Reversal (Mus musculus [3]) [%] | Reversal (Mus musculus [4]) [%] | Reversal (Mus musculus [6]) [%] | Reversal (Mus musculus [8]) [%] | other results
NC(=O)CCC1CCC(=O)N1 (stereo unspecified) | 64 | 33 | 64 | – | – | – | –
O=C(O)CCC1CCCC(=O)N1 (stereo unspecified) | 67 | – | – | 86 | 70 | 8 | Reversal (Mus musculus [5]): 60%; Reversal (Mus musculus [7]): 56%
CC12CCC(=O)N1C(=O)CC2 | – | – | – | 31 | 77 | 85 | –
O=C1CCC(CCC(=O)OCc2ccccc2Cl)N1 (stereo unspecified) | – | – | – | – | – | – | Reversal (Mus musculus [9]): 70%; Reversal (Mus musculus [10]): 31%; Reversal (Mus musculus [11]): 30%; Reversal (Mus musculus [12]): 15%; Reversal (Mus musculus [13]): 80%; Reversal (Mus musculus [14]): 85%
O=C1CCC(CCC(=O)OCc2ccccc2)N1 (stereo unspecified) | – | – | – | 64 | 64 | 71 | Reversal (Mus musculus [5]): 67%; Reversal (Mus musculus [15]): 44%; Reversal (Mus musculus [7]): 56%
O=C(O)CCCC1CCCC(=O)N1 (stereo unspecified) | – | – | – | 67 | 100 | 0 | –
COC(=O)CCC1CCC(=O)N1 (stereo unspecified) | – | – | – | 75 | 100 | 75 | –
O=C1CCC(CCC(=O)NC23C[C@H]4C[C@@H](C2)C[C@@H](C3)C4)N1 (stereo partly specified) | 57 | 40 | 57 | – | – | – | –
CC(C)OC(=O)CCC1CCC(=O)N1 (stereo unspecified) | 42 | – | 16 | – | 42 | – | –
CCOC(=O)CCC1CCC(=O)N1 (stereo unspecified) | – | – | – | 10 | 0 | 27 | –
CC1CC2CCC(=O)N2C1=O (stereo unspecified) | – | – | – | 50 | 0 | 30 | Reversal (Mus musculus [5]): 50%; Reversal (Mus musculus [7]): 20%
O=C(CCC1CCC(=O)N1)NCc1ccccc1 (stereo unspecified) | – | – | – | 0 | 62 | 50 | –
O=C1CCC(CCC(=O)OCc2ccc(Cl)cc2)N1 (stereo unspecified) | 0 | 25 | 42 | – | – | – | –
O=C(O)CCCC1CCC(=O)N1 (stereo unspecified) | 34 | 50 | 100 | – | – | – | –
O=C1CCCC2CCC(=O)N12 (stereo unspecified) | – | – | – | 29 | 50 | 64 | Reversal (Mus musculus [5]): 56%; Reversal (Mus musculus [7]): 18%
O=C(O)CCC1CCCCC(=O)N1 (stereo unspecified) | 0 | 38 | 67 | – | – | – | –
O=C1CCC(CCC(=O)OCc2cccc(Cl)c2)N1 (stereo unspecified) | 100 | 30 | 90 | – | – | – | –
O=C(CCC1CCC(=O)N1)Nc1ccncc1 (stereo unspecified) | 64 | 59 | 53 | – | – | – | –

SMILES | Reversal (Mus musculus [1]) [%] | Reversal (Mus musculus [2]) [%] | Reversal (Mus musculus [3]) [%] | Reversal (Mus musculus [4]) [%] | Reversal (Mus musculus [6]) [%] | Reversal (Mus musculus [8]) [%] | other results
Cc1cccc(C)c1NC(=O)CCC1CCC(=O)N1 (stereo unspecified) | 49 | 56 | 50 | – | – | – | –
CC(OC(=O)CCC1CCC(=O)N1)c1ccccc1 (stereo unspecified) | 13 | 60 | 16 | – | – | – | –
CC(C)N(CCNC(=O)CCC1CCC(=O)N1)C(C)C (stereo unspecified) | – | – | – | 17 | 33 | 17 | –
O=C(O)CSC1CCC(=O)N1 (stereo unspecified) | – | – | 31 | – | – | – | Reversal (Mus musculus [16]): 21%; Reversal (Mus musculus [17]): 64%
COC(=O)CCSC1CCC(=O)N1 (stereo unspecified) | – | – | 87 | – | – | – | Reversal (Mus musculus [16]): 25%; Reversal (Mus musculus [17]): 53%
O=C1CCCCC2CCC(=O)N12 (stereo unspecified) | – | – | – | 14 | 9 | 36 | –
CCOC(=O)CCSC1CCC(=O)N1 (stereo unspecified) | – | – | 44 | – | – | – | Reversal (Mus musculus [16]): 66%; Reversal (Mus musculus [17]): 49%
O=C1CCC(CCCC(=O)OCc2ccccc2)N1 (stereo unspecified) | 70 | 24 | 43 | – | – | – | –
CC1CC2CC(C)C(=O)N2C1=O (stereo unspecified) | – | – | – | 0 | 20 | 20 | –
O=C1CCC2SCC(=O)N12 (stereo unspecified) | 31 | 0 | 0 | – | – | – | –
O=C1CCSC2CCC(=O)N12 (stereo unspecified) | 19 | 51 | 55 | – | – | – | –
O=C(CCC1CCC(=O)N1)NCCc1ccc(O)cc1 (stereo unspecified) | 20 | 0 | 0 | – | – | – | –
O=C(O)CCC1CCC(=O)N1 (stereo unspecified) | – | – | – | 89 | 100 | 67 | Reversal (Mus musculus [5]): 91%; Reversal (Mus musculus [15]): 58%; Reversal (Mus musculus [7]): 83%
O=C1CCC(/C=C/C(=O)OCc2ccccc2)N1 (stereo unspecified) | – | – | 17 | – | – | – | Reversal (Mus musculus [16]): 31%; Reversal (Mus musculus [17]): 0%
O=C(O)CC1CCC(=O)N1 (stereo unspecified) | 2 | 0 | 42 | – | – | – | –
O=C1CCCC2CCCC(=O)N12 | – | – | – | 33 | 44 | 55 | –
O=C1CCC2CCC(O)N12 (stereo unspecified) | – | – | 17 | – | – | – | Reversal (Mus musculus [16]): 27%; Reversal (Mus musculus [17]): 19%
O=C1CCC2CCC(=O)N12 [ROLZIRACETAM] | – | – | – | 69 | 31 | 63 | Reversal (Mus musculus [18]): 85%; Reversal (Mus musculus [19]): 92%; Reversal (Mus musculus [20]): 62%; Reversal (Mus musculus [5]): 25%; Reversal (Mus musculus [21]): 19%; Reversal (Mus musculus [22]): 73%; Reversal (Mus musculus [7]): 27%
